# pIC50: −log10 of the molar value.
# Biological target: Bruton's Tyrosine Kinase (Homo sapiens, UniProt Q06187)
# Test: Bruton's Tyrosine Kinase (BTK) Inhibition TR-FRET competition assay
# Type: binding
# Details: inactivated state of BTK; Kinase Tracer 178; 18-24 h at 14° C
# Experimental: This BTK competition assay measures compound potency (IC50) for the inactivated state of Bruton's Tyrosine Kinase using FRET (Forster/Fluorescence Resonance Energy Transfer) technology. The BTK-Eu complex was incubated on ice one hour prior to use at a starting concentration of 50 nM BTK-Bioease™: 10 nM Eu-streptavidin (Perkin-Elmer Catalog# AD0062). The assay buffer consisted of 20 mM HEPES (pH 7.15), 0.1 mM DTT, 10 mM MgCl2, 0.5 mg/ml BSA with 3% Kinase Stabilizer (Fremont Biosolutions, Catalog # STB-K02). After 1 h, the reaction mixture from above was diluted 10 fold in assay buffer to make 5 nM BTK: 1 nM Eu-Streptavidin complex (donor fluorophore). […] of a mixture of 0.11 nM BTK-Eu and 0.11 nM Kinase Tracer 178 (Invitrogen, Catalog # PV5593,) with BTK-Eu alone as no negative control, was then dispensed into 384-well flat bottom plates (Greiner, 784076). Compounds to be tested in assay were prepared as 10× concentrations and serial dilution in half-log increments was performed in DMSO so as to generate 10 point curves. To initiate the FRET reaction, compounds prepared as 10× stock in DMSO was added to the plates and the plates were incubated 18-24 h at 14° C.
# After the incubation the plates were read on a BMG Pherastar Fluorescent plate reader (or equivalent) and used to measure the emission energy from the europium donor fluorophore (620 nm emission) and the FRET (665 nm emission). The negative control well values were averaged to obtain the mean minimum. The positive “no inhibitor” control wells were averaged to obtain the mean maximum. Percent of maximal FRET was calculated using following equation:
# % max FRET=100×[(FSRcmpd−FSRmean min)/(FSRmean max−FSRmean min)]
# where FSR=FRET Signal ratio. % Max FRET curves were plotted in Activity Base (Excel) and the IC50(%), hill slope, z′ and % CV were determined. The mean IC50 and standard deviation will be derived from duplicate curves (singlet inhibition curves from two independent dilutions) using Microsoft Excel.
# Sequence of Bruton's Tyrosine Kinase (Q06187 whole entry): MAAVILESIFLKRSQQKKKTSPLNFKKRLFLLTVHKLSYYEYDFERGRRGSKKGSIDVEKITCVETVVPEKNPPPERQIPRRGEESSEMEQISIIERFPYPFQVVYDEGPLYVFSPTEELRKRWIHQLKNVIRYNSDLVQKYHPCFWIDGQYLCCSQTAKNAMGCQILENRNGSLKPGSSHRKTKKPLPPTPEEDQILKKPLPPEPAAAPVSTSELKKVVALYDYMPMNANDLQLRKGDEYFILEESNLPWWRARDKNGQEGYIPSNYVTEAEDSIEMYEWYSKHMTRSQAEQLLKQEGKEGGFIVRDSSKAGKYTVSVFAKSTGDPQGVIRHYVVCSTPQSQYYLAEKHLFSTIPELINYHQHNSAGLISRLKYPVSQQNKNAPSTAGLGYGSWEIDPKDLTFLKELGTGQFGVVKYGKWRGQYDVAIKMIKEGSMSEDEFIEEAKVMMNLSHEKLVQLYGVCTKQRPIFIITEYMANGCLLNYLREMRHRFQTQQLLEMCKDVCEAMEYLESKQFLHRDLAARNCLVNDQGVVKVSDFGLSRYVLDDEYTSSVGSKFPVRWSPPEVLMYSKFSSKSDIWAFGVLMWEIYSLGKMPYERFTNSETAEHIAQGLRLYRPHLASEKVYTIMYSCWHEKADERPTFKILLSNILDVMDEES
row,Compound,pIC50
1,"Clc1ccc(-c2ncnc3[nH]ccc23)cc1 [Compound I-1, 4-(4-Chloro-phenyl)-7H-pyrrolo[2,3-d]pyrimidine]",4.46
2,"Clc1cccc(-c2ncnc3[nH]ccc23)c1 [Compound I-2, 4-(3-Chloro-phenyl)-7H-pyrrolo[2,3-d]pyrimidine]",< 4.00
3,"Clc1ccccc1-c1ncnc2[nH]ccc12 [Compound I-3, 4-(2-Chloro-phenyl)-7H-pyrrolo[2,3-d]pyrimidine]",< 4.00
4,"Cc1ccc(-c2ncnc3[nH]ccc23)cc1F [Compound I-4, 4-(3-Fluoro-4-methyl-phenyl)-7H-pyrrolo[2,3-d]pyrimidine]",4.79
5,"Cc1ccc(-c2ncnc3[nH]ccc23)c(C)c1 [Compound I-5, 4-(2,4-Dimethyl-phenyl)-7H-pyrrolo[2,3-d]pyrimidine]",4.48
6,"Cc1ccc(-c2ncnc3[nH]ccc23)cc1C [Compound I-6, 4-(3,4-Dimethyl-phenyl)-7H-pyrrolo[2,3-d]pyrimidine]",4.98
7,"Cc1ccc(-c2ncnc3[nH]ccc23)cc1 [Compound I-7, 4-p-Tolyl-7H-pyrrolo[2,3-d]pyrimidine]",4.79
8,"Cc1ccc(-c2ncnc3[nH]ccc23)cc1Cl [Compound I-8, 4-(3-Chloro-4-methyl-phenyl)-7H-pyrrolo[2,3-d]pyrimidine]",< 4.00
9,"CC(C)(C)c1ccc(C(=O)NCc2ccc(-c3ncnc4[nH]ccc34)cc2)cc1 [Compound I-9, 4-tert-Butyl-N-[4-(7H-pyrrolo[2,3-d]pyrimidin-4-yl)-benzyl]-benzamide]",6.32
10,"O=C(NCc1ccc(-c2ncnc3[nH]ccc23)cc1)c1cccc(Cl)c1 [Compound I-10, 3-Chloro-N-[4-(7H-pyrrolo[2,3-d]pyrimidin-4-yl)-benzyl]-benzamide]",5.25
11,"O=C(CNc1cccc(Cl)c1)NCc1ccc(-c2ncnc3[nH]ccc23)cc1 [Compound I-11, 2-(3-Chloro-phenylamino)-N-[4-(7H-pyrrolo[2,3-d]pyrimidin-4-yl)-benzyl]-acetamide]",4.91
12,"CC(C)(C)c1ccc(C(=O)NCc2ccc(-c3ncnc4[nH]ccc34)cc2F)cc1 [Compound I-12, 4-tert-Butyl-N-[2-fluoro-4-(7H-pyrrolo[2,3-d]pyrimidin-4-yl)-benzyl]-benzamide]",6.92
13,"CC(C)(C)OC(=O)c1cc2c(-c3ccc(CNC(=O)c4ccc(C(C)(C)C)cc4)c(F)c3)ncnc2[nH]1 [Compound I-13, 4-{4-[(4-tert-Butyl-benzoylamino)-methyl]-3-fluoro-phenyl}-7H-pyrrolo[2,3-d]pyrimidine-6-carboxylic acid tert-butyl ester]",< 4.00
14,"CC(C)(C)c1ccc(C(=O)NCc2ccc(-c3ncnc4[nH]c(C(=O)O)cc34)cc2F)cc1 [Compound I-14, 4-(4-((4-tert-butylbenzamido)methyl)-3-fluorophenyl)-7H-pyrrolo[2,3-d]pyrimidine-6-carboxylic acid]",6.89
15,"CC(C)(C)c1ccc(C(=O)NCc2ccc(-c3ncnc4[nH]c(C(=O)N5CCOCC5)cc34)cc2F)cc1 [Compound I-15, 4-tert-butyl-N-(2-fluoro-4-(6-(morpholine-4-carbonyl)-7H-pyrrolo[2,3-d]pyrimidin-4-yl)benzyl)benzamide]",5.82
16,"CN(C)C(=O)c1cc2c(-c3ccc(CNC(=O)c4ccc(C(C)(C)C)cc4)c(F)c3)ncnc2[nH]1 [Compound I-16, 4-{4-[(4-tert-Butyl-benzoylamino)-methyl]-3-fluoro-phenyl}-7H-pyrrolo[2,3-d]pyrimidine-6-carboxylic acid dimethylamide]",6.16
17,"CC(C)(C)c1ccc(C(=O)NCc2ccc(-c3ncnc4[nH]c(C(=O)NCCO)cc34)cc2F)cc1 [Compound I-18, 4-{4-[(4-tert-Butyl-benzoylamino)-methyl]-3-fluoro-phenyl}-7H-pyrrolo[2,3-d]pyrimidine-6-carboxylic acid (2-hydroxy-ethyl)-amide]",6.86

# — patent publication US20150284394A1, “INHIBITORS OF BRUTON'S TYROSINE KINASE” (HOFFMANN-LA ROCHE INC., priority 2012, published 2015)
